Test results from patent US20260174778A1, “SULFONAMIDE COMPOUND, AND PREPARATION METHOD THEREFOR AND USE THEREOF” (SHANGHAI HENLIUS BIOTECH, INC., priority 2023, published 2026).

System: breast cancer cell line ZR-75-1
Test: Inhibition of proliferation of breast cancer cell line ZR-75-1 (CellTiter-Glo)
Format: cell-based
Conditions: Homo sapiens, 240 h, proliferation of ZR-75-1 cells, 10 days of incubation, read-out: IC50 (KAT6A)
Source text: Test Example 1: Experiment for Determining Inhibitory Effects of Compounds on Proliferation of Breast Cancer Cell Line ZR-75-1
ATP is an indicator of the metabolism of living cells. The CellTiter-Glo® Luminescent Cell Viability Assay is a homogeneous assay method for determining the number of viable cells by quantifying ATP.
• 1) ZR-75-1 (Cell Bank of Chinese Academy of Sciences, TCHul26) • 2) RPMI-1640 medium (Gibco, 11875-093) • 3) Fetal Bovine Serum, New Zealand (Gibco,10091-148) • 4) Penicillin-streptomycin (10,000 U/mL) (Gibco, 15140-122) • 5) Trypsin-EDTA (0.25%), containing phenol red (Gibco, 25200-072) • 6) DPBS (Shanghai BasalMedia, B210KJ) • 7) Corning® 96-well Clear Flat Bottom Ultra-Low Attachment Microplate (Corning, Cat. No. 3474) • 8) 330 μL 96 Holes Deep Well Plate, transparents, 96 Round Holes, V-shaped Bottom, Low Retention (Stellar Scientific, DP33VR-9-NS) • 9) Corning® 96-well solid white flat-bottom polystyrene microplate (Corning, Cat. No. 3917) • 10) CellTiter-Glo® Luminescent Cell Viability Assay (Promega, G7573) • 11) Countstar® BioMed automatic cell counter • 12) Trypan blue solution, 0.4% (Gibco, Cat. No. 15250061) • 13) 37° C. constant-temperature incubator (Thermo, FORMA STERI-CYCLE i160 LK) • 14) Biosafety cabinet (Thermo, 1379)
• 1) The formula of the complete medium for ZR-75-1 was as follows: 500 mL RPMI-1640+10% FBS+1% penicillin-streptomycin. • 2) Thirty minutes before cell plating, the complete medium, serum, trypsin, and DPBS for use in ZR-75-1 cell culture were pre-warmed in a water bath at 37° C. • 3) The ZR-75-1 cells were taken out of the incubator, and the medium was removed by pipetting. The cells were rinsed once with 5 mL of DPBS, and then the DPBS was discarded. • 4) The cells in the T75 culture flask were digested with 1-3 mL of (0.25%) trypsin-EDTA. After the trypsin was added, the culture flask was incubated in an incubator at 37° C. for 2-5 min, and dispersion was confirmed by microscopic examination. Tapping or agitating the culture flask was avoided to prevent disturbing the cells, which might cause cell clumping. • 5) 9 mL of the complete medium was added to terminate the digestion, thus forming a cell suspension, which was then mixed well by pipetting. • 6) Cell suspension counting: 20 μL of the cell suspension was pipetted and diluted with 20 µL of the 0.4% trypan blue solution (Gibco, Cat. No. 15250061). The total cell count and the percentage of cell viability were determined using the Countstar® BioMed automatic cell counter. Only cells with a cell viability of no less than 95% were used for the experiment. • 7) The concentration of the cell suspension was adjusted to 2000 cells/well, and the cell suspension was added to a 96-well cell culture plate at 80 μL/well. Treatment of Cells with Compounds • 1) Twenty-four hours after cell plating, the cell plate was taken out. • 2) Each compound was prepared with a complete medium. The stock solution was a 10 mM solution in DMSO, which was first diluted with the medium to 100 μM, then diluted to 1 μM, and finally subjected to a 5-fold serial dilution across a total of 9 concentration gradients. • 3) 20 μL of the compound diluted with the medium was added to each well of the cell culture plate, which already contained 80 μL of the medium. The final concentration started at 200 nM, followed by a 5-fold serial dilution across a total of 9 concentration gradients. Two replicate wells were set for each compound, and each plate could be used to test 3 compounds, with the DMSO content controlled within 0.5%. • 4) The culture medium was replenished once every three days with a complete medium containing the same concentration of the test compound, with 20 μL/well added each time.
After 10 days of incubation with the compound, the cell culture plate was taken out, and the CellTiter-Glo® reagent was added at 50 μL/well. […]

SMILES	IC50
COc1cc(Cn2cccn2)cc2onc(NS(=O)(=O)c3ccccc3OC3CCC3)c12 [Compound 1, N-(6-((1H-Pyrazol-1-yl)methyl)-4-methoxybenzo[d]isoxazol-3-yl)-2-cyclobutoxybenzenesulfonamide]	0.5 to 2 nM
COc1cc(Cn2cccn2)cc2onc(NS(=O)(=O)c3ccccc3OC3CC(F)(F)C3)c12 [Compound 2, N-(6-((1H-Pyrazol-1-yl)methyl)-4-methoxybenzo[d]isoxazol-3-yl)-2-(3,3-difluorocyclobutoxy)benzenesulfonamide]	2 to 10 nM
COc1cc(Cn2cccn2)cc2onc(NS(=O)(=O)c3cc(C(C)(C)C)ccc3OC3CCC3)c12 [Compound 3, N-(6-((1H-Pyrazol-1-yl)methyl)-4-methoxybenzo[d]isoxazol-3-yl)-5-(tert-butyl)-2-cyclobutoxybenzenesulfonamide]	2 to 10 nM
COc1cc(Cn2cccn2)cc2onc(NS(=O)(=O)c3cccc4c3OCO4)c12 [Compound 4, N-(6-((1H-Pyrazol-1-yl)methyl)-4-methoxybenzo[d]isoxazol-3-yl)benzo[d][1,3]dioxole-4-sulfonamide]	10 to 50 nM
COc1cc(Cn2cccn2)cc2onc(NS(=O)(=O)c3cccc4c3OC(F)(F)O4)c12 [Compound 5, N-(6-((1H-Pyrazol-1-yl)methyl)-4-methoxybenzo[d]isoxazol-3-yl)-2,2-difluorobenzo[d][1,3]dioxole-4-sulfonamide]	≥ 50 nM
CC(C)Oc1cc(Cn2cccn2)cc2onc(NS(=O)(=O)c3cc(C(C)(C)C)ccc3OC3CCC3)c12 [Compound 6, N-(6-((1H-Pyrazol-1-yl)methyl)-4-isopropoxybenzo[d]isoxazol-3-yl)-5-(tert-butyl)-2-cyclobutoxybenzenesulfonamide]	2 to 10 nM
COc1c(F)c(Cn2cccn2)cc2onc(NS(=O)(=O)c3cc(C(C)(C)C)ccc3OC3CCC3)c12 [Compound 7, N-(6-((1H-Pyrazol-1-yl)methyl)-5-fluoro-4-methoxybenzo[d]isoxazol-3-yl)-5-(tert-butyl)-2-cyclobutoxybenzenesulfonamide]	0.5 to 2 nM
CC(C)(C)c1ccc(OC2CCC2)c(S(=O)(=O)Nc2noc3cc(Cn4cccn4)c(C4CC4)cc23)c1 [Compound 8, N-(6-((1H-Pyrazol-1-yl)methyl)-5-cyclopropylbenzo[d]isoxazol-3-yl)-5-(tert-butyl)-2-cyclobutoxybenzenesulfonamide]	10 to 50 nM
COc1ccccc1S(=O)(=O)Nc1nsc2cc(Cn3cccn3)cc(OC)c12 [Compound 9, N-(6-((1H-Pyrazol-1-yl)methyl)-4-methoxybenzo[d]isothiazol-3-yl)-2-methoxybenzenesulfonamide]	≥ 50 nM
COc1cc(Cn2cccn2)cc2onc(NS(=O)(=O)c3cc(C(C)C)ccc3OCC(F)F)c12 [Compound 10, N-(6-((1H-Pyrazol-1-yl)methyl)-4-methoxybenzo[d]isoxazol-3-yl)-2-(2,2-difluoroethoxy)-5-isopropylbenzenesulfonamide]	2 to 10 nM
COc1ccc2c(c1S(=O)(=O)Nc1noc3cc(Cn4cccn4)cc(OC)c13)OCCC21CCC1 [Compound 15, N-(6-((1H-Pyrazol-1-yl)methyl)-4-methoxybenzo[d]isoxazol-3-yl)-7-methoxyspiro[chromane-4,1′-cyclobutane]-8-sulfonamide]	< 0.5 nM
COc1ccc2c(c1S(=O)(=O)Nc1noc3cc(Cn4cccn4)cc(OC)c13)OCCC2(C)C [Compound 16, N-(6-((1H-Pyrazol-1-yl)methyl)-4-methoxybenzo[d]isoxazol-3-yl)-7-methoxy-4,4-dimethylchromane-8-sulfonamide]	< 0.5 nM
COc1cccc(OC2CCC2)c1S(=O)(=O)Nc1noc2cc(Cn3cccn3)cc(OC)c12 [Compound 21, N-(6-((1H-Pyrazol-1-yl)methyl)-4-methoxybenzo[d]isoxazol-3-yl)-2-cyclobutoxy-6-methoxybenzenesulfonamide]	2 to 10 nM
CCc1ccc(OC2CCC2)c(S(=O)(=O)Nc2noc3cc(Cn4cccn4)cc(OC)c23)c1 [Compound 22, N-(6-((1H-Pyrazol-1-yl)methyl)-4-methoxybenzo[d]isoxazol-3-yl)-2-cyclobutoxy-5-ethylbenzenesulfonamide]	2 to 10 nM
COc1cc(Cn2cccn2)cc2onc(NS(=O)(=O)c3cc(C(C)C)ccc3OC3CCC3)c12 [Compound 23, N-(6-((1H-Pyrazol-1-yl)methyl)-4-methoxybenzo[d]isoxazol-3-yl)-2-cyclobutoxy-5-isopropylbenzenesulfonamide]	2 to 10 nM
COc1cccc(OC)c1S(=O)(=O)Nc1nsc2cc(Cn3cccn3)ccc12 [Compound 25, N-(6-((1H-Pyrazol-1-yl)methyl)benzo[d]isothiazol-3-yl)-2,6-dimethoxybenzenesulfonamide]	≥ 50 nM

Further lines, results first:

IC50	SMILES
2 to 10 nM	COc1ccccc1S(=O)(=O)Nc1noc2cc(Cn3cccn3)cc(OC(F)F)c12 [Compound 11, N-(6-((1H-Pyrazol-1-yl)methyl)-4-(difluoromethoxy)benzo[d]isoxazol-3-yl)-2-methoxybenzenesulfonamide]
2 to 10 nM	COc1cccc(OC)c1S(=O)(=O)Nc1noc2cc(Cn3cccn3)cc(OC(F)F)c12 [Compound 12, N-(6-((1H-Pyrazol-1-yl)methyl)-4-(difluoromethoxy)benzo[d]isoxazol-3-yl)-2,6-dimethoxybenzenesulfonamide]
0.5 to 2 nM	COc1ccc(C(C)(C)O)cc1S(=O)(=O)Nc1noc2cc(Cn3cccn3)cc(OC)c12 [Compound 13, N-(6-((1H-Pyrazol-1-yl)methyl)-4-methoxybenzo[d]isoxazol-3-yl)-5-(2-hydroxypropan-2-yl)-2-methoxybenzenesulfonamide]
0.5 to 2 nM	COc1ccc2c(c1S(=O)(=O)Nc1noc3cc(Cn4cccn4)cc(OC)c13)OCCO2 [Compound 14, N-(6-((1H-Pyrazol-1-yl)methyl)-4-methoxybenzo[d]isoxazol-3-yl)-6-methoxy-2,3-dihydrobenzo[b][1,4]dioxine-5-sulfonamide]
0.5 to 2 nM	COc1ccc2c(c1S(=O)(=O)Nc1noc3cc(Cn4cccn4)cc(OC)c13)OCO2 [Compound 17, N-(6-((1H-Pyrazol-1-yl)methyl)-4-methoxybenzo[d]isoxazol-3-yl)-5-methoxybenzo[d][1,3]dioxole-4-sulfonamide]
2 to 10 nM	COc1ccc2c(c1S(=O)(=O)Nc1noc3cc(Cn4cccn4)cc(OC)c13)OC(C)(C)O2 [Compound 18, N-(6-((1H-Pyrazol-1-yl)methyl)-4-methoxybenzo[d]isoxazol-3-yl)-5-methoxy-2,2-dimethylbenzo[d][1,3]dioxole-4-sulfonamide]
2 to 10 nM	COc1ccc2c(c1S(=O)(=O)Nc1noc3cc(Cn4cccn4)cc(OC)c13)OC(C)(C)C2 [Compound 19, N-(6-((1H-Pyrazol-1-yl)methyl)-4-methoxybenzo[d]isoxazol-3-yl)-6-methoxy-2,2-dimethyl-2,3-dihydrobenzofuran-7-sulfonamide]
0.5 to 2 nM	COc1ccc2c(c1S(=O)(=O)Nc1noc3cc(Cn4cccn4)cc(OC)c13)OCC2(C)C [Compound 20, N-(6-((1H-Pyrazol-1-yl)methyl)-4-methoxybenzo[d]isoxazol-3-yl)-6-methoxy-3,3-dimethyl-2,3-dihydrobenzofuran-7-sulfonamide]
10 to 50 nM	COc1cccc(OC)c1S(=O)(=O)Nc1nsc2cc(Cn3cccn3)cc(OC)c12 [Compound 24, N-(6-((1H-Pyrazol-1-yl)methyl)-4-methoxybenzo[d]isothiazol-3-yl)-2,6-dimethoxybenzenesulfonamide]
